Non-standard residues stand in square brackets, D forms with d. Residues, ends and D or L forms follow the SMILES beside them. *: point of attachment. Sta = CC(C)C[C@H](N)[C@@H](O)CC(=O)O; Isovaleryl = CC(C)CC(=O)*
Columns and labels:
[1] = tested on: CSP processing in P. berghei sporozoites; experiment: Pulse-chase metabolic labeling of CSP processing, P. berghei sporozoites; assay type: cell-based, Plasmodium berghei; settings: two hour chase at 28° C.; 10 mM E-64, 1 mM PMSF, 0.3 mM aprotinin, 100 mM 3,4 DCl, 75 mM leupeptin, 100 mM TLCK, 1 mM pepstatin, 1 mM 1,10 phenanthroline, 5 mM EDTA
Experimental: P. berghei sporozoites were incubated in Dulbecco's Modified Eagle Medium (DMEM; Invitrogen, Carlsbad, Calif.) without cysteine (Cys) and methionine (Met), containing 1% BSA and […] L-[35 S]-Cys/Met (Pro-Mix, Amersham Pharmacia) in a total volume of 200 μl for one hour at 28° C. They were then washed and resuspended in DMEM/BSA containing unlabeled Cys/Met at 28° C. for the indicated time in the presence or absence of the indicated protease inhibitor. Sporozoites were then lysed and CSP was immunoprecipitated and analyzed by autoradiography as outlined below.
When sporozoites were incubated with specific inhibitors, their concentrations were as follows: 10 […] E-64; 1 mM phenylmethylsulfonyl fluoride (PMSF); 0.3 mM aprotinin; 100 mM 3,4 DCl; 75 mM leupeptin; 100 mM TLCK; 1 mM pepstatin; 1 mM 1,10 phenanthroline; 5 mM EDTA; 0.5% sodium azide. To check for toxicity by propidium iodide (PI) staining, P. berghei sporozoites were incubated in the presence or absence of the various protease inhibitors for two hours at 28° C., PI was then added to a final concentration of […] for five minutes at 28° C. The sporozoites were washed and viewed under a fluorescent microscope.
Metabolically-labeled sporozoites were lysed in lysis buffer (1% Triton X-100, 50 mM Tris-HCl pH 8.0) with 150 mM NaCl containing a protease inhibitor cocktail (Complete Mini-Tablets, Roche) for one hour at 4° C. The lysates were incubated with mAb 3D11 conjugated to agarose overnight at 4° C. with agitation, and the beads were then washed sequentially with lysis buffer containing 150 mM NaCl, high salt buffer (500 mM NaCl in lysis buffer), lysis buffer without added NaCl, and pre-elution buffer (0.5% Triton X-100, 10 mM Tris-HCl pH 6.8). CSP was eluted with 1% SDS in 0.1 M glycine pH 1.8, neutralized with 1.5 M Tris-HCl pH 8.8, and run on a 7.5% SDS-polyacrylamide gel under nonreducing conditions.
P. berghei sporozoites were metabolically labeled as previously described (Bruna-Romero, O., et al.). Briefly, sporozoites were labeled in Dulbecco's Modified Eagle Medium containing 1% BSA (DMEM/BSA) without Cys/Met and with 400 μCi/ml L-[^35S]Cys/Met for one hour at 28° C. and chased in DMEM/BSA with Cys/Met at 28° C. in the presence of 10 μM E-64 or the indicated concentrations of allicin. Labeled sporozoites were lysed in 1% Triton X-100/150 mM NaCl/50 mM Tris-HCl pH 8.0 with protease inhibitors, and lysates were incubated with 3D11-sepharose overnight at 4° C. CSP was eluted with 1% SDS in 0.1 M glycine pH 1.8, neutralized with Tris-HCl pH 8.8, and run on a 7.5% SDS-polyacrylamide gel under nonreducing conditions. The gel was fixed, enhanced with Amplify (Amersham Pharmacia), dried and exposed to film.
P. berghei sporozoites were metabolically labeled in DMEM without Cys/Met, 1% BSA and 400 μCi/ml L-[^355]-Cys/Met for 1 hour at 28° C. and then kept on ice or chased at 28° C. for the indicated times. Details of this procedure are outlined in (Coppi et al., 2005). To investigate the kinetics of processing in the presence of hepatocytes, sporozoites were labeled as above, chased at 28° C. for 1 hour and then centrifuged (300×g) onto glass coverslips with Hepa 1-6 cells and incubated at 37° C. for 5, 15 or 30 minutes. To investigate the effect of antibodies on CSP cleavage, sporozoites were labeled as above and then chased for 2 hours in the presence of the indicated antibody. Monoclonal antibodies were used as purified antibodies at the indicated concentrations and the IgG fraction of the NH2-terminal antiserum was used after isolation by Protein A (Vivapure maxiprepA; Sartorius, Edgewood, N.Y.). In all cases, labeled sporozoites (with or without Hepa 1-6 cells) were lysed and labeled CSP was immunoprecipitated with mAb-3D11 conjugated to sepharose or in the case of P. falciparum CSP, with mAb-2A10 conjugated to sepharose, as previously described (Coppi et al., 2005). CSP was eluted from the beads, run on an SDS-PAGE gel which was enhanced, dried and exposed to film. […]

[2] = tested on: P. berghei sporozoites; assay type: cell-based, Plasmodium berghei; settings: sporozoites preincubated two hours with inhibitor, Hepa 1-6 cells, one hour
Experimental: %invasion=total sporozites−extracellular sporozites×100/total sporozites
Invasion assays were performed as previously described (Pinzon-Ortiz, C., et al.) with some modifications. […] Cells were then washed, fixed, and sporozoites were stained with a double staining assay that distinguishes between intracellular and extracellular sporozoites (Renia, L., et al.). […]

[3] = tested on: CSP cleavage in P. berghei sporozoites; experiment: Cell contact assay (CSP cleavage on contact with hepatocytes); assay type: cell-based, Plasmodium berghei
Experimental: Hepa 1-6 cells were seeded on glass coverslips at a density of 2×10^5 cells per coverslip and grown until confluent. P. berghei sporozoites were incubated in DMEM±10 mM E-64 at 4° C. for two hours. Thirty minutes before sporozoites were added to coverslips, Cytochalasin D (CD) was added to all samples (final concentration, […]). Sporozoites were centrifuged onto coverslips (1250×g) for five minutes at 4° C. Coverslips were then brought to 37° C. for two minutes, fixed with 4% paraformaldehyde and stained with either mAb 3D11 followed by anti-mouse Ig FITC or the N-terminal antiserum (1:100) followed by anti-rabbit Ig FITC. […] As a control, sporozoites were spun onto coverslips without cells using the protocol outlined above.

[4] = tested on: P. berghei sporozoites; settings: sporozoites incubated with inhibitor for two hours, then metabolically labeled
Experimental: Panel A illustrates P. berghei sporozoites were metabolically labeled with [35 S]-Cys/Met and then washed and kept on ice (lane 1) or chased with cold medium for two hours at 28° C., in the absence (lane 2) or presence of the indicated protease inhibitors (lanes 3-11). After the chase, sporozoites were lysed, CSP was immunoprecipitated and analyzed by SDS-PAGE and autoradiography (abbreviations: Apr, aprotinin; DCl, 3,4 DCl; Leu, leupeptin; Pep, pepstatin; Phen, 1,10 phenanthroline). Panel B illustrates P. falciparum sporozoites were metabolically labeled as above and then kept on ice (lane 1) or chased with cold medium for ninety minutes in the absence (lane 2) or presence of E-64 (lane 3). Samples were processed as outlined above. Panel C illustrates P. berghei sporozoites were preincubated with buffer (lane 1) or the indicated compounds, washed, metabolically labeled with [^35S]-Cys/Met, lysed, and CSP was immunoprecipitated and analyzed by SDS-PAGE and autoradiography. (Abbreviations: Az=sodium azide).
In addition to the above, pulse-chase metabolic labeling experiments were performed with sporozoites of the human malaria parasite, Plasmodium falciparum. […] In order to insure that the protease inhibitors were not toxic to sporozoites, sporozoites were incubated with the various inhibitors for two hours and then propidium iodide (hereinafter, “PI”) was added, which is a fluorescent molecule that enters permeabilized cells.

[5] = molecular target: Plasmodium berghei circumsporozoite protein (CSP), full-length, high molecular weight form (Plasmodium berghei) (UniProt P23093); experiment: cell-based or functional assay

Molecule | effect on CSP processing [1] | effect on sporozoite invasion [2] | also measured
c1cnc2c(c1)ccc1cccnc12 [1,10 phenanthroline] | no effect on CSP processing | – | –
O=c1oc(Cl)c(Cl)c2ccccc12 [3,4 DCl, 3,4-dichloroisocoumarin] | Neither compound had an effect on CSP processing | did not have significant inhibitory activity on invasion | –
C=C1[C@@H](C)[C@H]2[C@H](Cc3ccccc3)NC(=O)[C@]23[C@H](OC(C)=O)/C=C/[C@@](C)(O)C(=O)[C@@H](C)C/C=C/[C@H]3[C@@H]1O [CD, cytochalasin D] | – | – | percentage staining with the N-terminal antiserum ([3]; experiment 1, no cells, visualized with α-N): 85% ± 1.1; Number of Sporozoites Visualized ([3]; experiment 1, wildtype sporozoites, Hepa 1-6, visualized with 3D11): 244 ± 3; Number of Sporozoites Visualized ([3]; experiment 2, GFP sporozoites, Hepa 1-6, visualized by GFP): 452 ± 8; Number of Sporozoites Visualized ([3]; experiment 2, GFP sporozoites, Hepa 1-6, visualized with α-N): 98 ± 2
O=C(O)CN(CCN(CC(=O)O)CC(=O)O)CC(=O)O [EDTA] | no effect on CSP processing | – | –
O=S(=O)(F)Cc1ccccc1 [PMSF, phenylmethylsulfonyl fluoride] | inhibited CSP processing | had inhibitory activity | CSP synthesis after incubation with inhibitor [4]: not affected
Cc1ccc(S(=O)(=O)N[C@@H](CCCCN)C(=O)CCl)cc1 [TLCK] | inhibited CSP processing | – | –
CC(=O)N[C@@H](CC(C)C)C(=O)N[C@@H](CC(C)C)C(=O)N[C@H](C=O)CCCNC(=N)N [leupeptin] | inhibited CSP processing | had inhibitory activity | CSP synthesis after incubation with inhibitor [4]: not affected
CC(C)CC(=O)N[C@H](C(=O)N[C@H](C(=O)N[C@@H](CC(C)C)[C@@H](O)CC(=O)N[C@@H](C)C(=O)N[C@@H](CC(C)C)[C@@H](O)CC(=O)O)C(C)C)C(C)C [pepstatin] (Isovaleryl-VV[Sta]A[Sta]-OH) | no effect on CSP processing | no effect on invasion | –
aprotinin | Neither compound had an effect on CSP processing | did not have significant inhibitory activity on invasion | –
mAb 3D11 (antibody) | – | – | inhibition of CSP cleavage at 10 µg/ml, pulse-chase metabolic labeling [5]: 50 to 75%
